The record followed here is PMC7827406, “Structure–Activity Relationship (SAR) Study of Spautin-1 to Entail the Discovery of Novel NEK4 Inhibitors” (International Journal of Molecular Sciences, 2021).

Like-named read-outs stand apart in the source and are kept apart here.

The target of assay [1] is T1, BMPR2(h) (Homo sapiens, UniProt Q13873).
T1 sequence (Q13873 1-1038): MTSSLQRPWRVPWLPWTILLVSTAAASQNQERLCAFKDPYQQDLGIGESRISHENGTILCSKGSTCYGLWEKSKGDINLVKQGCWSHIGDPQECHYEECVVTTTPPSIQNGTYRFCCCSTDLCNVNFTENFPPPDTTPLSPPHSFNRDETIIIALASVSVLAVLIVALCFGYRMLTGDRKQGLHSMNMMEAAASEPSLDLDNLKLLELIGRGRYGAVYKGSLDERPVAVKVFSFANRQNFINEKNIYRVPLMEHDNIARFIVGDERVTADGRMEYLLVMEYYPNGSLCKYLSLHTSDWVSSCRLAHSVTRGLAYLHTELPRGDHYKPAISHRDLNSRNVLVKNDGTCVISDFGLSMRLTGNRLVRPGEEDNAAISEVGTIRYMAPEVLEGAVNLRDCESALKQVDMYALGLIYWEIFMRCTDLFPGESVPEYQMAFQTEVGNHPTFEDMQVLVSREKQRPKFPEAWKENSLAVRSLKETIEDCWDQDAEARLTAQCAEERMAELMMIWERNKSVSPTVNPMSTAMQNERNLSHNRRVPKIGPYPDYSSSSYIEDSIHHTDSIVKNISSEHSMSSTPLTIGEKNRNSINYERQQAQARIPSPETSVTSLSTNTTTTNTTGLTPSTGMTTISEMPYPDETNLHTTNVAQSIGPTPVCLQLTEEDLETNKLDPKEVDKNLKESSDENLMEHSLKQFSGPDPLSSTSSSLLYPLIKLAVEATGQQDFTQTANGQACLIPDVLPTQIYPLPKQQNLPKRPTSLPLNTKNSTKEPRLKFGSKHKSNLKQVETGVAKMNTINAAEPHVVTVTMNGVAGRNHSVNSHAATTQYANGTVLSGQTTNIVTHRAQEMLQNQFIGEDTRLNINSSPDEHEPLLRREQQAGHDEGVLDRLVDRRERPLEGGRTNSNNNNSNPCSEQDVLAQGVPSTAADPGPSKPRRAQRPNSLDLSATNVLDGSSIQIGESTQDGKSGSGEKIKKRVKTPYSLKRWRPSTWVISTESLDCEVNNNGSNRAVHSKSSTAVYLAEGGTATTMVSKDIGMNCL
Description: biochemical. Set-up: Eurofins KinaseProfiler full panel at Km ATP, residual kinase activity (%) relative to DMSO. Summed up: (§1)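 Radiometric kinase activity assays were run with ATP at Km and compounds at 10 µM, and remaining activity (%) was reported. A separate competitive binding screen measured DNA-tagged kinase displaced from immobilized active-site ligands by qPCR, giving percent kinase still bound at 10 µM compound in DMSO.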

The target of assay [2] is T2, EphB3(h) (Homo sapiens, UniProt P54753).
T2 sequence (P54753 1-998): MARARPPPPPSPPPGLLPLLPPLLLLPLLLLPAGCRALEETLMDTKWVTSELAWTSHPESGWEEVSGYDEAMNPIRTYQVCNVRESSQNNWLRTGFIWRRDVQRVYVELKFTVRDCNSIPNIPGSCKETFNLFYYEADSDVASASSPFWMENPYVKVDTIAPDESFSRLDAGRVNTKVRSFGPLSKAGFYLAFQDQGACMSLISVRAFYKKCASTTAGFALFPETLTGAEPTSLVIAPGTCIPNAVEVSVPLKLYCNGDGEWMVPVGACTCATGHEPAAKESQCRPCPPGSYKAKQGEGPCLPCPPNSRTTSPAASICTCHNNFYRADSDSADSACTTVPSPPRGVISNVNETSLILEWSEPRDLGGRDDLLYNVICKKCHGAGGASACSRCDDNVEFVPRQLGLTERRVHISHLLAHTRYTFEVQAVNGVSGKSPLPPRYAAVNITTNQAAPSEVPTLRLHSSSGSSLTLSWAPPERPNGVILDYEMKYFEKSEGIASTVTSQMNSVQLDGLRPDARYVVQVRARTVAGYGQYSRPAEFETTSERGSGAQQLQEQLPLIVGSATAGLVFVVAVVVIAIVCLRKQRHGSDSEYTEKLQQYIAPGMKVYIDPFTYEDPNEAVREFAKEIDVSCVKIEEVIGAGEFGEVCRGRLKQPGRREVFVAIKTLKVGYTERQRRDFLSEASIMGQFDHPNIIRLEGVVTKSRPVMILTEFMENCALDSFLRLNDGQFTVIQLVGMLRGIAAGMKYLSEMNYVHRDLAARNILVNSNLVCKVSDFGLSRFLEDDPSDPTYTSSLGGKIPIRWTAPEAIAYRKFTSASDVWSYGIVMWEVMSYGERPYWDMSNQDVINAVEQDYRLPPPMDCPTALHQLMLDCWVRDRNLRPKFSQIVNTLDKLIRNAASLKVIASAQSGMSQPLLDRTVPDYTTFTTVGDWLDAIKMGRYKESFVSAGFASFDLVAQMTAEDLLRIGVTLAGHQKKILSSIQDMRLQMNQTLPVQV
Description: biochemical. Also on record: Eurofins KinaseProfiler full panel at Km ATP, residual kinase activity (%) relative to DMSO. Summed up: as §1

Where [3] appears, read: read-out: Residual activity (%) Spautin-1 5aa.
Setting [4] is: read-out: Residual activity (%) 5as.
[5] abbreviates: read-out: Residual activity (%) 5at.
The mark [6] stands for this setting: read-out: Residual activity (%) 5ay.

For `Fc1ccc(CNc2ncnc3ccc(F)cc23)cc1` [5aa, 6-Fluoro-N-(4-fluorobenzyl)-4-Quinazolinamine], the remaining activity at 10 µM is 115% in assay [1] (setting [3]) and 93% in assay [2] (setting [3]).
For the molecule `Fc1ccc(CCNc2ncnc3ccc(F)cc23)cc1` [5as, 6-Fluoro-N-[2-(4-Fluorophenyl)Ethyl]-4-Quinazolinamine], the values for the remaining activity at 10 µM in assay [1] (setting [4]) and in assay [2] (setting [4]) were 108% and 79%, respectively.
On to `Fc1ccc2ncnc(NCCc3ccc(Cl)cc3)c2c1` [5at, N-[2-(4-Chlorophenyl)Ethyl]-6-Fluoro-4-Quinazolinamine], for which the remaining activity at 10 µM in assay [1] (setting [5]) came out at 103%; in assay [2] (setting [5]), 76%.
As for `COc1ccc2ncnc(Nc3cccc(F)c3)c2c1` [5ay, N-(3-Fluorophenyl)-6-Methoxy-4-Quinazolinamine], the remaining activity at 10 µM in assay [1] (setting [6]) is 99%; in assay [2] (setting [6]) it was 84%.
